Reference: ChEMBL document CHEMBL1151479, “Hypoxia-inducible factor-1 inhibitory benzofurans and chalcone-derived diels-alder adducts from Morus species” (J Nat Prod, 2009)

Assays:
[1] = molecular target: Hypoxia inducible factors; HIF-1-alpha, HIF-2-alpha (Homo sapiens, UniProt Q16665+Q99814); experiment: Inhibition of hypoxia-induced HIF1 activation in human Hep3B cells by pGL3-HRE-luciferase reporter gene assay; assay type: cell-based; details: hep 3b2
Hep 3B2 [2] = experiment: Inhibition of hypoxia-induced VEGF protein secretion in human Hep3B cells after 16 hrs by ELISA; assay type: functional, cell-based
[3] = Cytotoxicity against human Hep3B cells after 24 hrs by MTT assay; assay type: cell-based; details: hep 3b2, 24 h
Hep 3B2 [4] = experiment: Effect on luciferase activity in human Hep3B cells exposed to hypoxic condition for 16 hrs; assay type: functional, cell-based
Hep 3B2 [5] = experiment: Inhibition of luciferase expression in human Hep3B cells after 16 hrs under hypoxic condition; assay type: functional, cell-based

IC50 [1] [µM]	IC50 (Hep 3B2 [2]) [µM]	EC50 (Hep 3B2 [4]) [µM]	IC50 (Hep 3B2 [5]) [µM]	Compound	Activity [3]
8.75	2.08	–	–	CC(C)=CC[C@@]12Oc3cc(O)c([C@H]4C=C(C)C[C@H](c5ccc(O)cc5O)[C@H]4C(=O)c4ccc(O)cc4O)c(O)c3C(=O)[C@]1(O)Oc1cc(O)ccc12 [SANGGENON O]	Dose-dependent effect
> 30	28.6	–	–	CC1=C[C@H]2c3c(O)cc(-c4cc5ccc(O)cc5o4)cc3O[C@@]3(c4ccc(O)cc4O)Oc4cc(O)ccc4[C@H](C1)[C@@H]23 [MULBERROFURAN G]	–
8.26	3.2	–	–	CC(C)=CC[C@]12Oc3cc(O)c([C@H]4C=C(C)C[C@H](c5ccc(O)cc5O)[C@H]4C(=O)c4ccc(O)cc4O)c(O)c3C(=O)[C@@]1(O)Oc1cc(O)ccc12 [SANGGENON C]	–
> 30	9.28	–	–	COc1c(O)cc2oc(-c3cc(O)cc(O)c3)cc2c1CC(=O)C(C)C [MORACIN Q]	Dose-dependent effect
6.07	3.05	–	–	CC(C)=CCC/C(C)=C\CC/C(C)=C\Cc1c(O)cc(O)cc1-c1cc2ccc(O)cc2o1 [MULBERROFURAN W]	–
> 30	15.4	–	–	C[C@@]12C=C(c3c(O)cc(-c4cc5ccc(O)cc5o4)cc3O)C[C@@H](C1)c1ccc(O)cc1O2 [MULBERROFURAN H]	Dose-dependent effect
8.76	2.17	–	–	CC(C)=CCC/C(C)=C/Cc1c(O)ccc2cc(-c3cc(O)cc(O)c3CC=C(C)C)oc12 [MULBERROFURAN D]	Dose-dependent effect
> 30	10.6	–	–	CC1(C)Oc2cc3oc(-c4cc(O)cc(O)c4)cc3cc2C[C@H]1O [MORACIN P]	Dose-dependent effect

Continued, compound first:

Compound	IC50 [1] [µM]	IC50 (Hep 3B2 [2]) [µM]	EC50 (Hep 3B2 [4]) [µM]	IC50 (Hep 3B2 [5]) [µM]	Activity [3]
CO[C@H]1/C=C\C=C(/C)C(=O)NC2=CC(=O)C(NCCN(C)C)=C(C[C@@H](C)C[C@H](OC)[C@H](O)[C@@H](C)/C=C(\C)[C@@H]1OC(N)=O)C2=O [ALVESPIMYCIN]	> 30	0.0795	–	–	–
CC(C)=CCc1c(O)ccc(C(=O)[C@H]2[C@@H](c3c(O)ccc(C(=O)/C=C/c4ccc(O)cc4O)c3O)C=C(C)C[C@@H]2c2ccc(O)cc2O)c1O	8.55	3.14	–	–	Dose-dependent effect
CC(C)(O)C1Cc2cc3cc(-c4cc(O)cc(O)c4)oc3cc2O1 (stereo not drawn) [MORACIN O]	> 30	7.22	0.001	0.00179	Dose-dependent effect
CC(C)=CCC/C(C)=C/Cc1c(O)cc(O)cc1-c1cc2ccc(O)cc2o1 [ALBAFURAN A]	6.27	2.62	–	–	Dose-dependent effect
CC(C)=CCc1c(O)ccc(C(=O)[C@H]2[C@@H](c3c(O)ccc(C(=O)/C=C/c4ccc(O)cc4)c3O)C=C(C)C[C@@H]2c2ccc(O)cc2)c1O	9.54	7.84	–	–	–
Oc1cc(O)cc(-c2cc3ccc(O)cc3o2)c1 [MORACIN M]	> 30	> 50	–	–	–
